Measured values taken from patent US20250236642A1, “PHARMACEUTICAL COMPOSITION FOR TREATMENT OR PREVENTION OF ADULT T-CELL LEUKEMIA” (NEC Corporation, priority 2022, published 2025).
Like-named read-outs stand apart in the source and are kept apart here. No end group written: not given here.

Columns and labels:
[1] = target: HLA-A*24:02 molecule (Homo sapiens, UniProt P04439, D101N/D140Y/D185E/E176V/E190D/F33S/G103R/G107R/I119L/I121M/I306V/K335N/L105A/L180Q/L300P/N151K/N90K/Q86E/Q94H/R106L/R138H/R89G/T104I/T345S/V100E/W191G/Y123F); assay: Binding of peptide to HLA-A*24:02 molecule using C1R-A24 cells
Method: Measurement of binding ability of a peptide to an HLA-A*24:02 molecule, which is a product of an HLA-A*24:02 gene, was performed using C1R-A24 cells expressing an HLA-A*24:02 molecule (Cells created by Professor Masafumi Takiguchi, Kumamoto University, was provided by Assistant Professor Masaki Yasukawa, Ehime University, with permission).
First, the C1R-A24 cells were exposed to acidic conditions at pH 3.3 for 30 seconds to dissociate and remove an endogenous peptide originally binding to an HLA-A*24:02 molecule and light chain β2m commonly associated with an HLA class I molecule. After neutralization, purified β2m was added to the C1R-A24 cells, and the mixture was added to a peptide dilution series and incubated on ice for four hours.
Thereafter, the number of MHC-peps for each C1R-A24 cell (proportional to a fluorescence intensity of the fluorescent antibody) was quantitatively measured using a fluorescence cell analyzer FACScan (Becton-Dickinson).

[2] = target: T1, HLA-A*02:01 molecule (Homo sapiens, UniProt P04439, D140Y/D185E/D98H/E176V/E277Q/G131W/G231S/I119V/I121R/I166T/I218V/L300P/L318F/N151K/N90K/P208A/P217A/Q86G/Q94H/R138H/R169H/T345S); assay: Binding of peptide to HLA-A*02:01 molecule using cell line T2
T1 construct: using a cell line T2 (purchased from ATCC) expressing an HLA-A*02:01 molecule; host or cells: T2 cell line
Method: Measurement of binding ability of a peptide to an HLA-A*02:01 molecule, which is a product of an HLA-A*02:01 gene, was performed using a cell line T2 (purchased from ATCC) expressing an HLA-A*02:01 molecule.
T2 cells and purified β2m were added to a serial dilution series of a peptide whose binding ability was to be measured, and then the mixture was incubated at 37° C. for four hours. HLA-A*02:01 molecules whose expression level increased in a peptide concentration-dependent manner by this time point were stained using an association-type specific fluorescently labeled monoclonal antibody BB7.2.
Thereafter, the amount of fluorescence per cell was measured with a flow cytometer, and a dissociation constant Kd value was calculated by the method disclosed in the article (Udaka et al., Immunogenetics, 51, 816-828, 2000) by the present inventor.

[3] = target: T2, HLA-A*02:06 molecule (Homo sapiens, UniProt P04439, D140Y/D185E/D98H/E176V/E277Q/F33Y/G131W/G231S/I119V/I121R/I166T/I218V/L300P/L318F/N151K/N90K/P208A/P217A/Q86G/Q94H/R138H/R169H/T345S); assay: Binding of peptide to HLA-A*02:06 molecule using RA2.6 cells
T2 construct: expressed in transfected cells; host or cells: RA2.6 cells (mouse TAP-deficient RMAS with HLA-A*02:06 cDNA)
Method: Measurement of binding ability of a peptide to an HLA-A*02:06 molecule, which is a product of an HLA-A*02:06 gene, was performed using RA2.6 cells (a cell line newly created at Kochi University) obtained by introducing cDNA of the HLA-A*02:06 gene into RMAS, which is a mouse transporter associated with antigen processing (TAP)-deficient cell line.
A fluorescently labeled monoclonal antibody BB7.2 that specifically recognizes a peptide binding type HLA-A*02:06 molecule was added thereto, and the mixture was incubated on ice for 20 minutes to stain the cells.

[4] = Table 2, dissociation constant Kd value (−log Kd value), >−3.0 = no significant binding ability, read-out: Measured value of allele A*24:02 (converted)
[5] = Table 2, dissociation constant Kd value (−log Kd value), >−3.0 = no significant binding ability, read-out: Measured value of allele A*02:01 (converted)
[6] = Table 2, dissociation constant Kd value (−log Kd value), >−3.0 = no significant binding ability, read-out: Measured value of allele A*02:06 (converted)
[7] = Measured value of allele A*24:02, Table 2, dissociation constant Kd value (−log Kd value), >−3.0 = no significant binding ability
[8] = Table 4, Kd value (−log Kd value), smaller than −3 = binding property, read-out: Measured value of allele A*24:02 (converted)

Row | Kd [1, 4] [µM] | Kd [2, 5] [µM] | Kd [3, 6] [µM] | Measured value of allele A*02:06 ([3]; Table 2, dissociation constant Kd value (−log Kd value), >−3.0 = no significant binding ability) | Kd [1, 8] [µM] | Measured value of allele A*02:06 ([3]; Table 4, Kd value (−log Kd value), smaller than −3 = binding property) | Sequence | Kd [1, 7] [µM] | Kd [2] [µM] | Kd [3] [µM]
1 | 4.69 | 0.265 | 0.392 |  |  |  | ALAPPTAQL [compound 6] |  |  | 
2 | 1.09 | 0.216 | 1.43 |  |  |  | ALLAPAVLL [compound 7] |  |  | 
3 |  |  |  |  |  |  | ALPAPHLTL [compound 18] | 0.185 | 1.02 | 3.03
4 | 0.66 | 2.19 | 16.6 |  |  |  | ALPKIRARV [compound 12] |  |  | 
5 |  |  |  |  |  |  | ALQFLIPRL [compound 22] | 10.9 | 1.26 | 1.45
6 |  |  |  |  |  |  | ALQPPCPNL [compound 31] | 4.94 | 7.44 | 23.1
7 | 0.397 | 0.774 | > 427 | >−3.37 |  |  | ALRPAPALL [compound 26] |  |  | 
8 |  |  |  |  |  |  | AQAPPTAQL [compound 5] | 1.77 | 0.961 | 1.42
9 | > 1000 | > 1000 | 82.1 |  | > 1000 |  | AQISAYRTC [compound 50] |  |  | 
10 | > 1000 | > 1000 | > 1000 |  | > 1000 |  | ARHSTIPLV [compound 77] |  |  | 
11 | 29.2 | 10.1 | 0.684 |  |  |  | ATAPPTAQL [compound 25] |  |  | 
12 | > 1000 | 83.1 | > 1000 |  | > 1000 | >−3 | ATGDCSSFI [compound 59] |  |  | 
13 | 3.82 | > 1000 | > 1000 |  |  |  | AYRTCWIFS [compound 49] |  |  | 
14 | 80.3 | > 1000 | > 1000 |  |  |  | CDLSSFEFF [compound 58] |  |  | 
15 | 332 | 14 | 5.62 |  |  |  | CIDEHQWQL [compound 28] |  |  | 
16 | 1.36 | 0.216 | 0.474 |  |  |  | CLDEHQWQL [compound 9] |  |  | 
17 | 2.91 | > 1000 | 42.4 |  |  |  | CMIVHQGTI [compound 36] |  |  | 
18 | > 1000 | 9.07 | 0.16 |  | > 1000 |  | CTDEHQWQL [compound 39] |  |  | 
19 | 2.91 | > 1000 | 18.9 |  |  |  | EAIDGYITL [compound 47] |  |  | 
20 | > 1000 | > 1000 | 426 |  | > 1000 |  | ETLQFIDSM [compound 53] |  |  | 
21 | 19.9 | > 1000 | > 1000 |  |  |  | FIDSDSSSW [compound 57] |  |  | 
22 | > 1000 | 126 | 19.3 |  | > 1000 |  | FSNDFGQSL [compound 35] |  |  | 
23 | > 1000 | > 1000 | > 1000 |  | > 1000 |  | GILSDHQQS [compound 74] |  |  | 
24 | 23.4 | > 1000 | > 1000 |  |  |  | GRVMQIDGV [compound 68] |  |  | 
25 | > 1000 | > 1000 | > 1000 |  | > 1000 |  | GSPDEFSND [compound 72] |  |  | 
26 | > 1000 | > 1000 | 218 |  | > 1000 |  | GTHLDAGTV [compound 51] |  |  | 
27 | 0.301 | > 1000 | > 1000 |  |  |  | GYITCERPF [compound 65] |  |  | 
28 | > 1000 | > 1000 | > 1000 |  | > 1000 |  | GYITLGKPH [compound 80] |  |  | 
29 | 0.923 | 2.06 | > 1000 |  |  |  | HMAKVIEFL [compound 38] |  |  | 
30 | 68.4 | > 1000 | > 1000 |  |  |  | HMTSSERPF [compound 64] |  |  | 
